Laboratory results: the NIST ThermoML archive (doi:10.1016/j.jct.2004.09.021)

How the values were obtained:
[1] = refractive index (Na D-line) (dimensionless); conditions: 101.33 kPa, Liquid
[2] = 101 kPa, Liquid
[3] = xn = mol fraction of the nth substance listed; conditions: 101 kPa, Liquid
[4] = refractive index (Na D-line) (dimensionless); xn = mol fraction of the nth substance listed; conditions: 101 kPa, Liquid

COc1ccccc1 [anisole]
Conditions | mass density, 293.15 K [kg/m3] | mass density, 298.15 K [kg/m3] | mass density, 303.15 K [kg/m3] | refractive index, 293.15 K | refractive index, 298.15 K | refractive index, 303.15 K | viscosity, 293.15 K [mPa·s] | viscosity, 298.15 K [mPa·s] | viscosity, 303.15 K [mPa·s]
[1] | – | – | – | 1.5161 | 1.5141 | 1.5129 | – | – | –
[2] | 993.81 | 989.15 | 984.42 | – | – | – | 1.085 | 1.017 | 0.9285

COc1ccccc1 [anisole] + CCCCCCCCC
Conditions | mass density, 293.15 K [kg/m3] | mass density, 298.15 K [kg/m3] | mass density, 303.15 K [kg/m3] | refractive index, 293.15 K | refractive index, 298.15 K | refractive index, 303.15 K | viscosity, 293.15 K [mPa·s] | viscosity, 298.15 K [mPa·s] | viscosity, 303.15 K [mPa·s]
[3], x1 = 0.1003 | 737.55 | 730.48 | 726.35 | – | – | – | 0.7027 | 0.6663 | 0.6209
[3], x1 = 0.1991 | 752.72 | 748.56 | 744.37 | – | – | – | 0.6975 | 0.6588 | 0.6172
[3], x1 = 0.2995 | 776.9 | 768.71 | 764.41 | – | – | – | 0.7043 | 0.662 | 0.6139
[3], x1 = 0.3997 | 795.17 | 790.9 | 786.51 | – | – | – | 0.7127 | 0.6693 | 0.6315
[3], x1 = 0.4998 | 819.75 | 815.37 | 810.88 | – | – | – | 0.7381 | 0.6982 | 0.6485
[3], x1 = 0.5907 | 844.35 | 839.87 | 835.33 | – | – | – | 0.7718 | 0.7299 | 0.6758
[3], x1 = 0.6975 | 876.64 | 872.08 | 867.39 | – | – | – | 0.8298 | 0.7801 | 0.7158
[3], x1 = 0.8008 | 911.95 | 907.24 | 902.38 | – | – | – | 0.9049 | 0.8452 | 0.7771
[3], x1 = 0.898 | 949.42 | 944.51 | 939.7 | – | – | – | 0.9871 | 0.9159 | 0.8365
[3], x1 = 1 | 993.81 | 989.15 | 984.42 | – | – | – | 1.085 | 1.017 | 0.9285
[4], x1 = 0.116 | – | – | – | 1.4119 | 1.4103 | 1.4074 | – | – | –
[4], x1 = 0.218 | – | – | – | 1.4191 | 1.4173 | 1.4148 | – | – | –
[4], x1 = 0.32 | – | – | – | 1.4276 | 1.4257 | 1.4234 | – | – | –
[4], x1 = 0.413 | – | – | – | 1.4361 | 1.4343 | 1.432 | – | – | –
[4], x1 = 0.4989 | – | – | – | 1.4448 | 1.443 | 1.4409 | – | – | –
[4], x1 = 0.5907 | – | – | – | 1.4553 | 1.4534 | 1.4515 | – | – | –
[4], x1 = 0.673 | – | – | – | 1.466 | 1.4639 | 1.4619 | – | – | –
[4], x1 = 0.782 | – | – | – | 1.4811 | 1.4789 | 1.4771 | – | – | –
[4], x1 = 0.8965 | – | – | – | 1.4984 | 1.4961 | 1.4944 | – | – | –
[4], x1 = 1 | – | – | – | 1.5161 | 1.5141 | 1.5129 | – | – | –

COc1ccccc1 [anisole] + CCCCCCCCCC
Conditions | mass density, 293.15 K [kg/m3] | mass density, 298.15 K [kg/m3] | mass density, 303.15 K [kg/m3] | refractive index, 293.15 K | refractive index, 298.15 K | refractive index, 303.15 K | viscosity, 293.15 K [mPa·s] | viscosity, 298.15 K [mPa·s] | viscosity, 303.15 K [mPa·s]
[3], x1 = 0.0846 | 742.22 | 738.35 | 734.48 | – | – | – | 0.8966 | 0.8362 | 0.7797
[3], x1 = 0.173 | 756.19 | 752.25 | 748.48 | – | – | – | 0.8837 | 0.8195 | 0.7679
[3], x1 = 0.2574 | 770.86 | 766.87 | 763.13 | – | – | – | 0.865 | 0.8019 | 0.7542
[3], x1 = 0.3675 | 792.19 | 788.11 | 784.45 | – | – | – | 0.8512 | 0.7887 | 0.7392
[3], x1 = 0.4546 | 811.1 | 806.89 | 803.36 | – | – | – | 0.8492 | 0.7883 | 0.7322
[3], x1 = 0.5661 | 838.25 | 833.93 | 830.59 | – | – | – | 0.8679 | 0.801 | 0.7387
[3], x1 = 0.6583 | 863.76 | 859.36 | 856.21 | – | – | – | 0.8896 | 0.8198 | 0.7585
[3], x1 = 0.7725 | 900.09 | 895.52 | 892.66 | – | – | – | 0.9343 | 0.8683 | 0.799
[3], x1 = 0.8798 | 940.35 | 935.67 | 933.11 | – | – | – | 0.9984 | 0.9296 | 0.8558
[3], x1 = 1 | 993.81 | 989.15 | 984.42 | – | – | – | 1.085 | 1.017 | 0.9285
[4], x1 = 0.1071 | – | – | – | 1.4198 | 1.4165 | 1.4131 | – | – | –
[4], x1 = 0.1979 | – | – | – | 1.425 | 1.4218 | 1.4186 | – | – | –
[4], x1 = 0.31 | – | – | – | 1.4328 | 1.4297 | 1.4269 | – | – | –
[4], x1 = 0.409 | – | – | – | 1.4405 | 1.4374 | 1.4349 | – | – | –
[4], x1 = 0.508 | – | – | – | 1.4495 | 1.4467 | 1.4443 | – | – | –
[4], x1 = 0.6 | – | – | – | 1.4591 | 1.4563 | 1.4541 | – | – | –
[4], x1 = 0.686 | – | – | – | 1.4694 | 1.4667 | 1.4645 | – | – | –
[4], x1 = 0.789 | – | – | – | 1.4831 | 1.4803 | 1.4784 | – | – | –
[4], x1 = 0.887 | – | – | – | 1.4973 | 1.4947 | 1.4927 | – | – | –
[4], x1 = 1 | – | – | – | 1.5161 | 1.5141 | 1.5129 | – | – | –
